One test has as its system phospho-S6. Nature of the test: Antigen-dependent CAR signaling (phospho-S6) in expanded CAR-T cells. The test is classed as cell-based, human. The conditions noted are these: cells expanded with 200 nM PI-103 or 1 μM Compound 63, washed; 20 hours co-culture 1:1. On the procedure: (§1) Separate compositions of CD4+ and CD8+ cells were isolated from three human donors, activated and transduced with a viral vector encoding an anti-CD19 CAR substantially as described in Example 2. After transduction, the CD4+ and CD8+ T cells derived from each donor were separately incubated for 8 days in the presence of a mTOR kinase inhibitor to expand T cells substantially as described in Example 2, except in the presence of 200 nM PI-103, 1 μM Compound 63, or with DMSO vehicle or media only controls. CD4+ and CD8+ T cells from each donor were then separately harvested, formulated, and cryofrozen. The cryofrozen engineered CD4+ and CD8+ T cells were thawed, washed to remove compound, and cells from the same donor were then combined at a ratio of 1:1 viable CD4+/CAR+ to viable CD8+/CAR+ T cells to produce an expanded anti-CD19 CAR-T cell composition containing CD4+ and CD8+ T cells. Functional activities of the generated anti-CD19 CAR-T cell compositions were assessed.
Antigen-dependent signaling of CAR-T cells among generated anti-CD19 CAR-T cell compositions was assessed by monitoring activation of phospho-S6. […] After 20 hours, cells were assessed, for intracellular S6 phosphorylation and co-stained for surface expression of CD4 or CD8, by flow cytometry.

Test [1] deals with anti-CD19 CAR-T cells stimulated with irradiated K562-CD19 target cells. Nature of the test: Secondary cytokine response after anti-idiotype bead expansion. The test is classed as cell-based, human. Particulars: for secondary cytokine production following subsequent stimulation with antigen: cells harvested at day 11 after anti-idiotype bead expansion, K562-CD19 1:1, approximately 16 hours.

In a further test the test system is Raji cells. Nature of the test: Raji tumor xenograft model, CAR-T cells expanded with inhibitor. The conditions noted are these: for tumor burden (bioluminescence) compared with DMSO vehicle: low (0.25×10^6) or high (1.0×10^6) dose of CAR+ T cells expanded with the inhibitor; for survival compared to mice administered CAR-T cells expanded with DMSO vehicle: low or high dose of CAR-T cells expanded with the inhibitor. The test is classed as in vivo, nod scid gamma (NSG) immunodeficient mice. The method, then: Anti-tumor effects of the generated anti-CD19 CAR-T cell compositions, generated by expansion in the presence of PI-103, Compound 63 or media only as described in Example 2, was assessed. The tumor xenograft mouse model was generated by implanting nod scid gamma (NSG) immunodeficient mice with 0.5×10^6 Raji cells (an immortalized human B lymphocyte tumor cell line that expresses CD19), which were allowed to engraft. The Raji cells were transfected with firefly luciferase to facilitate detection by bioluminescence imaging. After seven days, mice either received no treatment, DMSO vehicle, or a low dose (0.25×10^6) or a high dose (1.0×10^6) dose of CAR+ T cells of the generated anti-CD19 CAR-T cell compositions. Tumor burden was assessed by bioluminescence weekly or every 10 days.

For test [2], the system named is anti-CD19 CAR-T cells co-cultured with irradiated K562-CD19 target cells. Kind of test: Cytokine secretion after antigen stimulation (Luminex). The format is cell-based, human. The conditions noted are these: cells expanded with 200 nM PI-103 or 1 μM Compound 63; E:T 1:1, ~16 hours. The method, then:
as §1
To measure cytokines following antigen stimulation, cells from the generated anti-CD19 CAR-T cell compositions were co-cultured with irradiated K562-CD19 target cells or K562 parental target cells at an effector:target cell ratio of 1:1. After overnight (˜16 hours) culture, cell culture supernatants were harvested and TNF-alpha, IFN-gamma, and IL-2 cytokine production were measured using a Luminex Multiplex Assay. The fold-change of cytokine production observed in co-culture supernatants was determined from generated anti-CD19 CAR-T cell compositions expanded in the presence of PI-103, Compound 63, or DMSO vehicle compared to cells expanded in media only.

Test [3] concerns CD19-expressing target cells. Kind of test: Cytolytic activity of CAR-T cells (mixed CD4+/CD8+ process). The format is cell-based, human. Particulars: CAR-T cells prepared with 2 μM PI103 or 1 μM Compound 63; freshly thawed or day 14; 3:1 effector to target. On the procedure:
Separate compositions of CD4+ and CD8+ cells were selected from isolated PBMCs from a leukapheresis sample from the same human donor by immunoaffinity based selection, and the selected cell compositions were cryofrozen. The separate compositions of CD4+ and CD8+ T cells were subsequently thawed and mixed at a ratio of 1:1 of viable CD4+ T cells to viable CD8+ T cells. In this study, the mixed CD4+ and CD8+ cell populations were incubated in the presence of Compound 63, PI103 or no inhibitor (DMSO vehicle control) beginning at the initiation of stimulation. In more detail, the mixed CD4+ and CD8+ T cell composition was stimulated (in the presence or absence of an inhibitor, as indicated) in the presence of paramagnetic polystyrene-coated beads with attached anti-CD3 and anti-CD28 antibodies for between 18 to 30 hours, and were then transduced with a lentiviral vector encoding an anti-CD19 CAR. […]
Cytolytic activity of the generated CAR-T cells was assessed by culturing the generated CAR-T cells, either freshly thawed or at day 14 of restimulation from above, with CD19-expressing target cells at a 3:1 effector to target ratio. Target cell death was quantitated over time. The tumor cell growth area under the curve (AUC) of signal over time for each concentration was determined. A killing index was calculated as the inverse of the area under the tumor cell growth curve (1/AUC).

A further test concerns CD8+ CAR-T cells. Nature of the test: Glycolytic metabolism (ECAR, Seahorse) of CD8+ CAR-T cells expanded with inhibitor. The conditions noted are these: CD8+ CAR-T cells expanded with 1 μM Compound 63; 3 donors. The test is classed as cell-based, human. On the procedure: as §1, with “The cryofrozen engineered CD4+ and CD8+ T cells were thawed, washed to remove compound, and cells from the same donor were then combined at a ratio of 1:1 viable CD4+/CAR+ to viable CD8+/CAR+ T cells to produce an expanded anti-CD19 CAR-T cell composition containing CD4+ and CD8+ T cells.” left out
Changes in cellular glycolytic metabolism in response to T cell receptor (TCR) stimulation were measured in CD8+ CAR-T cells from the generated anti-CD19 CAR-T cell composition prior to combining with CD4+ T cells. Glycolytic metabolism was assessed by measuring the extracellular acidification rate (ECAR) in CD8+ CAR-T cells in real time with an extracellular flux bioanalyzer (Seahorse Bioanalyzer, Agilent Technologies). […] Area under the curve (AUC) for the ECAR rates (mpH/min) from 0 to 76 minutes of the assay and maximal ECAR glycolytic burst ratio relative to media controls (n=3 donors) were determined.

As to `Oc1cccc(-c2nc(N3CCOCC3)c3oc4ncccc4c3n2)c1` [PI-103, reference compound], in the test on phospho-S6, the “phospho-S6 staining after antigen stimulation vs DMSO vehicle or media only” value is on record as “similar”. Moreover, the “secondary cytokine production following subsequent stimulation with antigen” value in test [1] was “improved secondary cytokine production”. For the same compound, in the test with Raji cells, the “tumor burden (bioluminescence) compared with DMSO vehicle” value was “Reduced tumor burden” and the “survival compared to mice administered CAR-T cells expanded with DMSO vehicle” value was “substantially improved survival”. In test [2], the “cytokine production (TNF-alpha, IFN-gamma, IL-2) compared to control cells” value is recorded as “improvements in cytokine production” and the “production of IFN-gamma compared to control cells” value is “improved”. Also, the “target cell killing (killing index 1/AUC) compared to CAR-T cells prepared with DMSO” value in test [3] is given as “improved target cell killing”.

Take `CC(C)c1ccccc1-n1c(=O)[nH]c2c(C(N)=O)nc(-c3cccc(O)c3)nc21` [Compound 63, 2-(3-Hydroxyphenyl)-9-(2-isopropylphenyl)-8-oxo-8,9-dihydro-7H-purine-6-carboxamide]: the “phospho-S6 staining after antigen stimulation vs DMSO vehicle or media only” value in the test with phospho-S6 was “similar”. Further, the “secondary cytokine production following subsequent stimulation with antigen” value in test [1] is recorded as “improved secondary cytokine production”. The “frequency of CD8+ T cells that were CD107a+IFNγ+” value in test [1] (some donor-derived cells, day 11, Golgi Inhibitor 4 hours) is on record as “increased frequency of CD8+ T cells that were CD107a+IFNγ+ cells”. For the same compound, in the test with Raji cells (high dose of CAR-T cells expanded with the inhibitor, for at least 80 days following tumor cell implant), the survival was found to be 100%. Also, in the test on Raji cells, the “tumor burden (bioluminescence) compared with DMSO vehicle” value is on record as “Reduced tumor burden” and the “survival compared to mice administered CAR-T cells expanded with DMSO vehicle” value was “substantially improved survival”. The “glycolytic burst upon TCR stimulation (ECAR AUC, ECAR ratio) relative to media control” value in the test on CD8+ CAR-T cells is on record as “trend towards enhanced glycolytic burst”. Further, in test [2], the “cytokine production (TNF-alpha, IFN-gamma, IL-2) compared to control cells” value was “improvements in cytokine production” and the “production of IFN-gamma compared to control cells” value was “improved”. Also, the “target cell killing (killing index 1/AUC) compared to CAR-T cells prepared with DMSO” value in test [3] is listed as “improved target cell killing”.

(Values after patent US20210254000A1, “PROCESS FOR PRODUCING A T CELL COMPOSITION” (Juno Therapeutics, Inc., priority 2017, published 2021).)
